Laboratory results reported in US10577399B2, “Modified lantibiotics and methods of making and using the modified lantibiotics” (priority 2016, dated 2020).
In brackets after ≈: the same amount, converted by molar mass. Entries after “also recorded” stand apart in the source; their conditions may differ.

What was measured:
M. luteus ATCC 10240 = format: cell-based, Micrococcus luteus
How it was run: (§1)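 Broth microdilution: antibiotic in 50% acetonitrile, 2-fold dilutions from 640 μg/mL stock down to 0.156 μg/mL, 10 μL per well plus 190 μL of ~10^5 CFU bacteria grown in THyex at 37 °C. MIC read as concentration preventing visible growth after 24 h.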

S. pneumoniae ATCC 27336 = format: cell-based, Streptococcus pneumoniae
How it was run: as §1

[1] = Lipid II binding assay by thin layer chromatography; conditions: 3:10 peptide:lipid II ratio
Experimental: Lipid II was a kind gift from Eefjan Breukink and was resuspended in a 1:1 Methanol:Chloroform solution. The lipid II binding assay using thin layer chromatography (TLC) was done as previously described^39. The mobile solvent consisted of consisted of butanol:acetic acid:water:pyridine (15:3:12:10 [vol/vol/vol/vol]). A 0.2 mM solution of mutacin 1140 or mu1140-COOH in 10 μL of solution A was mixed with lipid II (final […]) for 1 hour in a sealed glass vial. This corresponded to a ratio 3:10 peptide:lipid II ratio. All of the reaction mixtures and the appropriate controls were spotted (5 μL) 2 cm from the bottom of the plate. These spots define the origin of the plate. […] The mobile phase was allowed to climb up the plate until it reached a centimeter from the top. The plate was allowed to dry before staining with iodine.
With the loss of activity associated with a free carboxyl group in mu1140-COOH, the basis for the loss in activity was studied. The mechanism of action for class I lantibiotics has been determined to be due to lipid II binding^34-36. In particular, rings A and B are believed to form a cage-like structure around the pyrophosphate moiety of lipid II^37. The latter half of the peptide is predicted to enhance binding and recruit other lipid II-lantibiotic molecules into a large lipid II-lantibiotic complex^16. […]

B. subtilis PY79 cells = experiment: Microscopy lipid II competition assay with fluorescein labeled nisin; format: cell-based, Bacillus subtilis; conditions: pretreatment 10 μg/mL for 15 minutes
Experimental: B. subtilis PY79 was grown and treated with fluorescein labeled peptide as previously described^39. A fresh plate of B. subtilis was used to inoculate THyex broth and incubated approximately 16 hours at 37° C. The culture was diluted 20-fold and placed back in the incubator for 3 hours at 37° C. Then, 100 μl of the culture was incubated with the antibiotic (10 μg/mL) for 15 minutes. The cells were pelleted and resuspended in 100 μl of phosphate buffer solution (PBS). The wash step was repeated three times before fixing with 1.6% formaldehyde in PBS. After fixation the cells were washed with PBS three more times and the remaining pellet was suspended in 50 μL of PBS. The sample (30 μL) was added to a slide and observed using an Olympus confocal microscope with a 100×/0.90 dry objective. A 488 nm argon laser was used to excite the fluorophore. For the competition assay, the bacterial culture was initially incubated with mu1140-COOH or native mutacin 1140 at a concentration of 10 μg/mL for 15 minutes, washed, and resuspended in fresh media. 10 μg/mL of fluorescein labeled nisin was then added for 15 minutes, before following the wash protocol previously stated.

Solubility in saline = format: physicochemical; conditions: saline solution
[2] = Pharmacokinetics after intravenous dose in mice; format: in vivo; conditions: mouse, iv, 2.5 mg/kg i. v., BALB/c mice, polynomial second order estimate
Experimental: The compounds were dissolved in normal saline for all pharmacokinetic studies. An extraction protocol was developed in vitro by the addition of each compound to commercially bought BALB/c mouse serum. The compounds were extracted by the addition of 70% ACN containing 0.1% TFA/30% methanol containing 0.4% formic acid. The extract was then analyzed by LC-MS using a TSQ Vantage Triple Quad mass spectrometer. A standard curve was generated for each compound using known dilutions of the compounds in serum, which was then extracted. The R-squared values for each standard exceeded 0.98. BALB/c mice were used to evaluate pharmacokinetics of the compounds in vivo. A 2.5 mg/kg i. v. dose was evaluated for native mutacin, R13A, S5G, and double mutant S5A:T14G (FIG. 12A). A polynomial second order was used to estimate the peak plasma concentration and half-life of the R13A. […] Possibly, the Dhb14 residue may protect the peptide from trypsin-like proteases in the blood. […] Thus, taking the dynamics of cell death into account and the pharmacokinetics of the R13A, the R13A in serum is above the inhibitory concentration for S. pneumonia long enough to kill the pathogen.

trypsin = experiment: Trypsin stability screen with M. luteus overlay; format: in vitro ADME; conditions: 0.5 mg/mL trypsin, 37° C., 30 minutes
Text: Selective activity and stability of analogs: Several core peptide mutants are provided that have improved activity against our ATCC strain of S. pneumoniae. These core peptide mutants were also selected based on the absence of a dehydrated residue Dha/Dhb or the proteolytically susceptible arginine residue. […] Although the analog S5G had improved activity against S. pneumoniae ATCC 27336 compared to native mutacin and R13A, the S5G had less activity against all other tested strains of S. pneumoniae. […] 4) The R13A mutation prevents feedback inhibition of mutacin 1140 production, leading to a 100% increase in yield from the culture liquor. […] They are important for immunoregulation and blood coagulation. The observed increase in stability of the R13A analog will likely be advantageous in an animal model.

C=C1NC(=O)[C@H](Cc2c[nH]c3ccccc23)NC(=O)[C@H](NC(=O)[C@H](CCCCN)NC(=O)[C@@H](N)Cc2ccccc2)CSC[C@@H](C(=O)N[C@H]2C(=O)N3CCC[C@H]3C(=O)NCC(=O)N[C@H](C(=O)N[C@@H](C)C(=O)N[C@@H](CCCNC(=N)N)C(=O)N/C(=C\C)C(=O)NCC(=O)N[C@@H]3CSC[C@@H]4NC(=O)[C@H](Cc5ccc(O)cc5)NC(=O)[C@@H](CSC[C@@H](C(=O)O)NC4=O)NC(=O)[C@H](CC(N)=O)NC(=O)[C@H](Cc4ccccc4)NC3=O)CS[C@H]2C)NC(=O)[C@H](CC(C)C)NC1=O [Mu1140 - COOH]
MIC (μg/mL) M. luteus (M. luteus ATCC 10240; Table 7, chemically modified analogs): 32 µg/mL (≈ 13.8 µM)
reduction in activity compared to wild type mutacin 1140 (MIC, M. luteus) (M. luteus ATCC 10240; vs wild type mutacin 1140): 256 fold
MIC (μg/mL) S. pneumoniae (S. pneumoniae ATCC 27336; Table 7, S. pneumoniae ATCC 27336): greater than 64 μg/mL
reduction in activity (MIC, S. pneumoniae ATCC 27336) (S. pneumoniae ATCC 27336; vs wild type mutacin 1140): > 128 fold
iodine stain at the origin of the TLC plate when mixed with lipid II [1]: faint stain
binding of fluorescein labeled nisin after pretreatment of cells (B. subtilis PY79 cells): no typical in vivo fluorescence pattern was observed; also recorded: drastically reduces binding of fluorescein labeled nisin

C=C1NC(=O)[C@H](Cc2c[nH]c3ccccc23)NC(=O)C(NC(=O)[C@H](CCCCN)NC(=O)[C@@H](N)Cc2ccccc2)CSC[C@@H](C(=O)NC2C(=O)N3CCC[C@H]3C(=O)NCC(=O)N[C@H](C(=O)N[C@@H](C)C(=O)N[C@@H](C)C(=O)NC(=CC)C(=O)NCC(=O)NC3CSC[C@@H]4NC(=O)[C@H](Cc5ccc(O)cc5)NC(=O)[C@@H](CS/C=C\NC4=O)NC(=O)[C@H](CC(N)=O)NC(=O)[C@H](Cc4ccccc4)NC3=O)CSC2C)NC(=O)[C@H](CC(C)C)NC1=O (some centres unmarked) [Mutant R13A]
MIC (M. luteus ATCC 10240; Table 10, indicator strain Micrococcus luteus): 0.0625 µg/mL (≈ 0.0287 µM)
solubility (Solubility in saline): > 2000 µg/mL
half-life ([2]; in vivo, read-out: estimated half-life): 1.17 h
Cmax ([2]; plasma, read-out: peak plasma concentration): 1700 ng/mL
stability to trypsin (trypsin): improved stability
